# Results: article PMC10947113, “A Bivalent Activatable Fluorescent Probe for Screening and Intravital Imaging of Chemotherapy‐Induced Cancer Cell Death” (Angewandte Chemie (Weinheim an Der Bergstrasse, Germany), 2021)
# How the values were obtained:
# [1] = system: breast cancer cells (MMTV-PyMT, MDA-MB231, MCF7); experiment: Dose-dependency study in breast cancer cell lines; format: cell-based, mouse and human
# Procedure: First, all drugs were tested in the 8 different cell lines to determine the percentages of Apotracker Red‐stained apoptotic cells compared to no treatment (Figure 3 c; Figure S8). […] From this screen, we decided to select 5 drugs with potent pro‐apoptotic response in breast cancer, the most diagnosed cancer worldwide.[25] […] From group 2, we selected cyclophosphamide, tamoxifen, and 5‐fluorouracil as pro‐apoptotic molecules. […] All 5 drugs were tested at multiple concentrations (from 1 to 100 μM) and with incubation times up to 48 h to examine whether drugs could block cell proliferation at late stages (Figures S9–S13).
# Figure 4 Apotracker Red detects dose‐dependent chemotherapeutic‐induced apoptosis in mouse and human breast cancer cell lines. Cells were plated with 1 μM CV, treated with increasing concentrations (0, 1, 3, 10, 30 and 100 μM) of selected drugs for 48 h, and stained with Apotracker Red (150 nM) before data acquisition. Drugs: tamoxifen (beige), cisplatin (black), 5‐fluorouracil (green), gemcitabine (pink) and cyclophosphamide (red). Data presented as mean±SEM of 3 independent experiments.
# Edinburgh. Human peripheral blood neutrophils were isolated as previously described.[3] Briefly, whole blood was drawn into tubes containing anti -coagulant 3.6% sodium citrate (final concentration: 0.4% (w/v)) and centrifuged at 350 g for 20 min at r.t. with lowest acceleration and no brake. Platelet-rich plasma was rem oved, and leukocytes separated from erythrocytes by 0.6% dextran sedimentation in saline for 30 min at r.t. […]
# were centrifuged (300 g, 5 min, r.t.), washed once with PBS before addition of 0.05% Trypsin, 0.02% ethylenediaminetetraacetic acid (EDTA) in Hank’s balanced salt solution (HBSS) and incubation at 37°C for 5 min. […] Histograms and mean fluorescence intensities of apoptotic cells were measured on a 5L LSR flow cytometer under the following excitation/emission filters: Apotracker Red (561/610 nm), Annexin V-AF647 (647 /670 nm).
# Data were acquired using the FACS Diva software and analysed using the FlowJo X software. […]
# 8 cancer cell lines = experiment: Classification of drugs by Apotracker Red (apoptosis) and CellTrace Violet (proliferation) staining; format: cell-based; conditions: 8 cancer cell lines, 24 h treatment, flow cytometry
# Procedure: To corroborate the versatility of Apotracker Red, we built a screening platform including a total of 8 cancer cell lines of variable origin and pathogenesis: breast (MCF7, MDA‐MB231 and MMTV‐PyMT (mouse mammary tumour virus‐polyoma middle tumour‐antigen)[23]), lung (A549), prostate (PC3 and LnCap), blood cells (Jurkat) and colon (HT29). All cell lines were cultured under standard conditions and seeded with the fluorescent proliferation marker CellTrace^TM Violet (CV) in 96‐well plates (10–20×10^3 cells/well) for high‐throughput flow cytometry. After drug treatment (i.e., drug addition plus 24 h incubation), Apotracker Red was incubated for 10 min and fluorescence readings were directly acquired without any additional processing steps (Figure 3 a). […] Using this platform, we tested a collection of FDA‐approved drugs in all cancer cell lines and compared their ability to induce apoptosis using Apotracker Red as the reporter. Specifically, we included DNA alkylation agents (e.g., cyclophosphamide, cisplatin, 5‐fluorouracil, gemcitabine, temozolomide), proteasomal and mitotic inhibitors (e.g., bortezomib, docetaxel, paclitaxel) and antagonists of specific proteins (e.g., dexamethasone, tamoxifen; Figure 3 b).
# First, all drugs were tested in the 8 different cell lines to determine the percentages of Apotracker Red‐stained apoptotic cells compared to no treatment (Figure 3 c; Figure S8). […] All 5 drugs were tested at multiple concentrations (from 1 to 100 μM) and with incubation times up to 48 h to examine whether drugs could block cell proliferation at late stages (Figures S9–S13).
# Figure S8. Heatmap of relative inhibition of cell proliferation (as indicated by staining of CellTraceTM Violet) after treatment of cancer cell lines with different drugs. Data presented as an average of 3 independent experiments. Cells were stained on day 0 with CellTraceTM Violet (1 µM) and mean fluorescence intensities were determined on the 5L LSR after 24 h of treatment with the different drugs. […]
# Cell culture. MCF-7, A549, LnCap, MDA-MB-231, Jurkat T cells and PC3 cells were obtained from American Type Culture Collection (ATCC). HT29 cells were purchased from Merck (S i g m a Aldrich, UK). Mouse Mammary Tumour Virus –Polyoma Middle T antigen (MMTV -PyMT) cells were provided by the lab of Mikala Egeblad (CSHL, US). MMTV-PyMT, MCF-7, LnCap, MDA-MB-231 and Jurkat T cells were cultured in Roswell Park Memorial Institute (RPMI) 1640 Medium supplemented with 10% fetal bovine serum (FBS) , 100 U mL-1 penicillin and 0.1 mg mL-1 streptomycin. A549 and PC3 cells were cultured in Dublecco’s modified Eagle’s medium (DMEM) supplemented with 10% fetal bovine serum (FBS), 100 U mL-1 penicillin and 0.1 mg […]
# Flow cytometry drug screen.
smiles,measurement,setting,value
N.N.[Cl][Pt][Cl] [cisplatin],"percentages of Apotracker Red staining across all breast cancer cells, dose-dependency study","[1]; 1 to 100 μM, 48 h, Apotracker Red 150 nM, 3 independent experiments",highest percentages of Apotracker Red staining
same,"ratios of proliferation blockage, dose-dependency study","[1]; CellTrace Violet 1 μM, drugs 1 to 100 μM, up to 48 h",highest ratios of proliferation blockage
same,drug group by Apotracker Red (apoptosis) and CV (proliferation) staining,8 cancer cell lines,induced apoptosis and decreased cell proliferation
